Test results as given in patent US8178118B2, “Magnesium compositions and uses thereof for cognitive function” (Magceutics, Inc., priority 2007, dated 2012).

Experiments:
rats = assay: novel object recognition test in rats; type: in vivo, rat
Protocol: In this example, the effect of magnesium supplementation on recognition memory was tested. Three groups of rats were used in these experiments: 1) young rats (three months old); aging rats (12-14 months old), and; 3) magnesium-treated aging rats (12-14 months old, diet supplemented with 6 mg/kg MgCl2 from 8 months of age). We used experimentally naive, female, Sprague-Dawley young […], aging (12-14 month old) and […] rats (Charles River) at the beginning of the behavior experiments. They were housed two per cage with continuous access to food and water under a 12:12 light-dark cycle, with light onset at 8:00 a.m. […] All experiments involving animals were approved by the Massachusetts Institute of Technology's and Tsinghua University Committees on Animal Care.
The three groups of rats were tested for recognition memory using an object recognition test with a single exposure to the object during training. The task is based on the natural tendency of rodents to explore new objects and tests the animals' memory capacity for distinguishing novel versus familiar objects.
Briefly, the rats were first individually habituated to the personnel and then to open-field arena during 2 weeks. […] The retention intervals were 10 min and 24 hours. Objects were cleaned thoroughly between trials with 20% ethanol solution to ensure the absence of olfactory cues. The particular objects for a given trial were randomly determined, but each object was used for only one trial per rat. Memory of the familiar object is associated with increased exploration of the new object and an exploration index (% correct) is calculated as new object inspection time/30.
In this example, the effect of magnesium supplementation on memory consolidation was studied. […]
Briefly, the rats were first individually habituated to the personnel and then to open-field arena during 2 weeks. […] The particular objects for a given trial were randomly determined, but each object was used for only one trial per rat. […]

[1] = system: young, aging and aged rats
Protocol: Twenty 2-month old, male Sprague Dawley (SD) rats were housed in a temperature-controlled room (22° C. to 25° C.) with a dark period from 08:00 pm to 08:00 am daily. […] Over 7 days before the training and trial period began, each rat was handled and habituated to the maze and to Kellogg's Froot Loop cereal.
Each rat underwent a test of one trial, followed by an interval of 10-minutes, followed by another trial, and so on, for a total of 6 trials in one day. In each trial, each rat went through a sample run in the maze, followed by an interval of 15 seconds, followed by a choice run in the maze. In the sample run, the subject rat was forced to go to the left or to the right by the presence of a block, according to a pseudorandom sequence (with an equal number of left turns and right turns, and no more than two consecutive turns in the same direction). As a reward, Froot Loop cereal was available in the food well at the end of the run, regardless of the direction that was taken by virtue of the block. In the choice run, the block that had been present in the preceding sample run was removed, and the rat was allowed to choose to go to the left or to the right. As a reward, Froot Loop cereal was available in the food well at the end of the run, only when the rat had made a “correct choice” by choosing the direction opposite that taken in the preceding sample run. […]
On the first day (designated day 0) of the feeding of the two groups, as just described, each rat underwent a preliminary test of one trial, followed by an interval of 10 minutes, followed by another trial, and so on, for a total of 4 trials in one day. […] In this preliminary test, the choice accuracy level, or ratio of correct choices made, co, to the number of number of trials in the test, no, was determined for each rat. […]
Three groups of animals (young, aging, and magnesium-treated aging rats) were used. […] Spatial working memory was assessed using a T-maze non-matching-to-place task. […] Spatial working memory was first assessed on an elevated T-maze. […]

[2] = magnesium absorption rate in rats (intake versus fecal excretion, ICP-AES); conditions: FIG. 4, Example 5, Mg gluconate in skim milk or water with 5 weight percent lactose, MgCl2 in water
Protocol: Fifty 3-month old, male Sprague Dawley (SD) rats were divided into five groups of ten rats. Rats of this age and older are considered adult. Each of the rats was placed in a separate metabolic cage equipped with urine- and feces-collecting wells. All of the rats were maintained in a temperature-controlled room (22° C. to 25° C.) with a dark period from 08:00 pm to 08:00 am daily. From day 1 through day 3, each rat was fed daily 15 g of magnesium-free food and de-ionized water. […] The medium was skim milk for Composition 1 and Group 1, milk prepared from powdered milk, by diluting the powdered milk with water to obtain a composition like that of skim milk, for Composition 2 and Group 2, 1% milk cream in water for Composition 3 and Group 3, water comprising 5 weight percent lactose for Composition 4 and Group 4, and water for the Control Composition and Control Group. […]
From day 4 through day 10, urine from each rat was collected daily. The collected urine from each rat was then pooled together and the total volume of the pooled urine from each rat was recorded. The pooled urine from each rat, in an amount of […], was analyzed for magnesium content using an inductively coupled plasma-atomic emission spectrometer (ICP-AES). […] The pooled feces from each rat, in an amount of 0.5 g, were analyzed for magnesium content using an ICP-AES. […]

diabetic patients = conditions: nearly 1 g of magnesium daily for 1 month; cited from earlier work
[3] = system: mice genetically altered to present symptoms of Alzheimer's disease (AD); assay: modified Morris water maze test in AD mice; type: in vivo, mouse; conditions: AD mice aged 13 months, FIG. 16
Protocol: Another group, the control group, of 10 mice that were genetically altered to present symptoms of AD were fed a Control Diet, a diet of normal solid food and water, for 30 days.
The pool used was a pool of water in a circular metal tank (150 cm in diameter and 50 cm in depth) having a water height of 30 cm and a water temperature that was maintained at ˜22° C. The pool was placed in a moderately lit area and surrounded by a black curtain. An acrylic platform (15 cm in diameter) was placed 2 cm below the surface of the water in the middle of one quadrant of the pool, equidistant from the center and the edge of the pool. Outside the pool, a cue was placed so as to be visible to a mouse in the maze, allowing a mouse to use it as a landmark for spatial orientation. The cue remained unchanged throughout the test period.
On the first day of the training and testing period, the water in the pool was transparent, such that the platform was visible. Each mouse was trained to swim towards the platform and to stand on the platform so as not to be submerged in the pool. […] The amount of time the mouse took to find the platform, referred to as “escape latency,” was recorded for each trial.
On the second day of the training and testing period, a small quantity of milk was added to the water in the pool, such that the pool was opaque and the platform was no longer visible. […]

AD mice = assay: physical motility (swimming speed) during water maze test; type: in vivo, mouse; conditions: 7 months and 15 months of treatment, FIG. 21
Protocol: The swimming speed of each mice is calculated from off-analysis.

[4] = brain (brainstem) magnesium concentration in AD mice, ICP-OES; type: in vivo, mouse; conditions: AD mice on magnesium diet from 5 month to 21 month of age, FIG. 26A

[Cl-].[Cl-].[Mg+2] [MgCl2, magnesium chloride]
novel object exploration preference, 10 minute retention interval (rats; aging rats (12-14 months old), 6 mg/kg MgCl2 from 8 months of age, single exposure training, P<0.0001): preferentially explored the novel object to the same extent as young rats | ability to distinguish novel versus familiar objects after 24 hours (rats; aging rats, single exposure training, all groups): lose there ability to distinguish novel versus familiar objects | preference for the novel object, 24-hour retention interval after spaced training (rats; two training sessions separated by 10 minutes, magnesium-treated aging rats): retained a high level of preference | asymptotic choice accuracy level after 8 days of training ([1]; all three groups (young, aging, magnesium-treated aging rats)): ~94% | learning in non-matching-to-place task, 15 sec delay ([1]; magnesium-treated aging rats versus aging rats, p<0.05): performed significantly better from their first trials | spatial working memory with increased delay between sample and choice trials ([1]; magnesium-treated aging rats, p<0.05): significantly enhanced the performance of the aging rats at 2 and 5 min delays | magnesium absorption rate of the higher dosage compositions (magnesium loading capacity) [2]: less desirable

[O]=[Mg] [magnesium oxide]
increase of serum magnesium level (diabetic patients): about 10% | metabolic control (diabetic patients): only minor improvement in metabolic control

CC12CC3CC(C)(C1)CC(N)(C3)C2 [memantine]
reduction of the effects of AD on learning capacity [3]: better at reducing the effects of AD on learning capacity than aricept

magnesium
mobility during the water maze test (AD mice): greatly increased mobility | relation of magnesium intake to brain magnesium [4]: linearly correlated to the amount of brain magnesium

magnesium gluconate
magnesium absorption rate of the higher dosage compositions (magnesium loading capacity) [2]: suitably close to those associated with the lower dosage compositions
